Measurements taken from US4758555A, “Method for treating convulsions and epilepsy with organic copper compounds” (priority 1986, dated 1988).
Entries after “also recorded” stand apart in the source; their conditions may differ.

Tests used:
[1] = Anticonvulsant activity, both or unspecified seizure models; type: in vivo, male Carworth Farms #1 mice or Sprague-Dawley rats
[2] = Maximal Electroshock Seizure Test; type: in vivo, male Carworth Farms #1 mice or Sprague-Dawley rats; details: for Anticonvulsant activity, Maximal Electroshock: Table VI; for Protection Against Seizure: Table IX, maximal electroshock, intraperitoneal, 65 mg/kg, 5 animals; for Lowest active dose, MES (Phase I): Table V
[3] = Rotating rod neurotoxicity; details: dose and time given in the source
[4] = mouse, in vivo; cited from earlier work
[5] = cited from earlier work; for Anticonvulsant activity reported previously (in words): 50, 100 and 300 mg/kg at 0.75, 1.5 and 3 hours post subcutaneous injection at a site different from Metrazol
[6] = Subcutaneous Pentylenetetrazol (Metrazol) Seizure Threshold Test; type: in vivo, male Carworth Farms #1 mice or Sprague-Dawley rats; details: for Protection against Metrazol-induced seizures (in words): running text; for Anticonvulsant activity, Metrazol: Table VI; for Lowest active dose, Metrazol (Phase I): Table V; for Lowest effective dose, Metrazol (Phase I): Table X
[7] = known from literature; cited from earlier work
[8] = Sleep time / hypnosis or sedation; type: in vivo; details: Table IX, intraperitoneal, 65 mg/kg; for Average Sleep Time: 5 animals
Experimental: In Phase I identification of anticonvulsant activity, test compounds were given intraperitoneally (IP) at 30, 100, 300 and, in some cases, 600 milligrams per kilogram (mg/kg) of body weight and protection against Maximal Electroshock and/or Metrazol-induced seizures was determined 30 minutes, 4 hours, or later. […] Subsequently the routine protocol was modified and certain of the test compounds (see Tables, infra) re-evaluated following subcutaneous (SC) injection at periods of up to 8 hours post injection. Subcutaneous administration can be helpful in determining whether or not hypnotic activity can be distinguished from anticonvulsant activity based upon the decreased rate of absorption associated with this route of administration as opposed to the more rapid rate of absorption associated with IP administration.

[9] = Lethality / acute toxicity (LD50 in 24 hours); details: for Doses causing death in some of the test groups: in vivo; for Lethality (in words): dose and time given in the source
Text: Test compounds were either dissolved in 0.9% saline, or suspended in either 30% polyethylene glycol 400 in 0.9% saline or 0.2% suspending agent like polyoxyethylene glycol or Tween 80 in 0.9% saline prior to injection into male Carworth Farms #1 mice or Sprague-Dawley rats.
In Phase I identification of anticonvulsant activity, test compounds were given intraperitoneally (IP) at 30, 100, 300 and, in some cases, 600 milligrams per kilogram (mg/kg) of body weight and protection against Maximal Electroshock and/or Metrazol-induced seizures was determined 30 minutes, 4 hours, or later. […] Subsequently the routine protocol was modified and certain of the test compounds (see Tables, infra) re-evaluated following subcutaneous (SC) injection at periods of up to 8 hours post injection.
All statistics were obtained by probit analyses.

[10] = cited from earlier work
[11] = SC at site different from injection of Metrazol

C1CCc2nnnn2CC1.[Cl-].[Cl-].[Cu+2] [Cu(II)(Metrazol)Cl2]
Anticonvulsant activity (in words) ([1]; running text): some anticonvulsant activity when injected at a site different from the site of Metrazol injection | Anticonvulsant activity, Maximal Electroshock ([2]; IP): I | Anticonvulsant activity, Maximal Electroshock [2, 11]: I | Rotating rod toxicity (in words) [3]: no rotating rod toxicity at doses up to 600 mg/kg

C1CCc2nnnn2CC1 [Metrazol, pentylenetetrazol]
CNS stimulation / rotating rod toxicity (known) [4]: potent central nervous system stimulant; also recorded: marked rotating rod toxicity | Seizures produced ([5]; 85 mg/kg subcutaneous): greater than 97 % of mice

Cu(II)2 (phenylacetate)4
Protection against Metrazol-induced seizures (in words) [6]: effective in protecting against Metrazol-induced seizures | Rotating rod toxicity (in words) [3]: Rotating rod toxicity at 300 mg/kg

O=C(O)c1ccccc1O [salicylate]
Convulsions / CNS toxicity at high doses [7]: cause convulsions at high doses

CC(=O)CC(C)=NCCN=C(C)CC(C)=O.[Cu] [Cu(II) Bisacetylacetonethyleneimine]
Anticonvulsant activity (in words) ([1]; running text): effective in preventing both Maximal Electroshock and Metrazol-induced seizures | Rotating rod toxicity (in words) ([3]; listed as bisacetylacetonethyleneimine complex): rotating rod toxicity, which may also have been due to hypnotic activity, was found at the higher doses studied

Copper acetate [Cu(II)2 (acetate)4]
Anticonvulsant activity, Metrazol [6, 11]: I | Anticonvulsant activity, Metrazol ([6]; intragastric): I | Lowest dose with activity against Metrazol-induced seizures ([6]; intraperitoneal (copper acetate: site different from Metrazol)): 5 mg/kg | Protection against Metrazol-induced seizures (in words) [6]: effective in inhibiting Metrazol-induced seizures | Anticonvulsant activity (in words) ([1]; running text): active when injected at the same site as the site of Metrazol injection; also recorded: lack of anticonvulsant activity | Anticonvulsant activity (in words) ([1]; running text, listed as copper acetate): inactive when administered orally | Anticonvulsant activity reported previously (in words) [5]: no anticonvulsant activity | Anticonvulsant activity, Maximal Electroshock ([2]; IP): I | Anticonvulsant activity, Maximal Electroshock ([2]; SC, same injection site used for injection of Metrazol): I | Anticonvulsant activity, Maximal Electroshock ([2]; intragastric): I

[Cl][Cu][Cl] [copper chloride]
Anticonvulsant activity reported previously (in words) [5]: no anticonvulsant activity

CCC1(CCC(C)C)C(=O)[N-]C(=O)NC1=O.CCC1(CCC(C)C)C(=O)[N-]C(=O)NC1=O.[Cu+2] [Cu(II)(amobarbital)2]
Sleep (in words) [8]: All animals slept | Average Sleep Time [8]: 16 min | Potency or effectiveness relative to a comparator (in words) ([1]; in vivo): more potent anticonvulsant than sodium (Na) amobarbital | Protection Against Seizure [2]: 100 Percent protected

Nc1ccc(C(=O)[O-])c(O)c1.Nc1ccc(C(=O)[O-])c(O)c1.[Cu+2] [Cu(II)(4-aminosalicylate)2]
Doses causing death in some of the test groups [9]: higher than 300 mg/kg | Lethality (in words) [9]: Lethal at higher doses | Anticonvulsant activity (in words) ([1]; running text): effective in preventing seizures | Anticonvulsant activity, Maximal Electroshock (Phase I) ([2]; Table II, IP): I

O=C(O)c1ccccc1[O-].O=C(O)c1ccccc1[O-].[Cu+2] [Cu(II)(salicylate)2]
LD50 ([9]; 24-hour, Phase II): 441 mg/kg | ED50 for protection against Metrazol-induced seizures ([6]; Phase II, SC): 38 mg/kg | Time of peak effect, inhibition of Metrazol-induced seizures ([6]; SC, 100 mg/kg, Phase II): 2 h | Protection against Metrazol-induced seizures (in words) [6]: rapid onset of protection against the Metrazol-induced seizure which decreases over the extrapolated period of 7 hours | Anticonvulsant activity (in words) ([1]; running text): effective at the higher doses studied and for prolonged periods of up to 4 hours | ED50 for protection against Maximal Electroshock-induced seizures ([2]; Phase II, SC): 360 mg/kg | Time of peak effect, inhibition of Maximal Electroshock induced seizures ([2]; SC, 600 mg/kg, Phase II): 7 h | Inhibition of Maximal Electroshock-induced seizure ([2]; SC, 600 mg/kg, at 24 hours, Phase II): 37% | Anticonvulsant activity, Maximal Electroshock (Phase I) ([2]; Table II, SC): I | Protection against Maximal Electroshock-induced seizures (in words) ([2]; running text): onset of protection against Maximal Electroshock-induced seizure was slower but the activity was prolonged over the 24-hour period; also recorded: inactive in protecting against the Maximal Electroshock-induced seizure in routine Phase I studies; also recorded: active in protecting against this seizure when higher doses were used and the activity was evaluated at different time periods

Cu(II) Salicylidene-L-valinate
Lethality (in words) [9]: Lethal at higher doses | Lethality (in words) ([9]; listed as salicylidene-L-valinate complex): caused lethality at higher doses | Anticonvulsant activity, Maximal Electroshock (Phase I) ([2]; Table IV, IP): I | Anticonvulsant activity, Maximal Electroshock (Phase I) ([2]; Table IV, SC): I

CC(=O)Nc1ccc(C(=O)[O-])c(O)c1.CC(=O)Nc1ccc(C(=O)[O-])c(O)c1.[Cu+2] [Cu(II)(4-acetylaminosalicylate)2]
Lethality (in words) [9]: Lethal at 100 mg/kg at 4 hours | Anticonvulsant activity, Metrazol (Phase I) ([6]; Table II, IP): I | Anticonvulsant activity (in words) ([1]; running text): effective in preventing seizures

CC[C@H](C)[C@H](N)C(=O)[O-].CC[C@H](C)[C@H](N)C(=O)[O-].[Cu+2] [Cu(II)(L-isoleucinate)2]
Lethality (in words) [9]: Lethal at higher doses | Anticonvulsant activity (in words) ([1]; listed as isoleucine complex): inhibited both the Maximal Electroshock and Metrazol-induced seizures in these Phase I tests | Anticonvulsant activity (in words) ([1]; running text): found to have anticonvulsant activity

CCC1(CCC(C)C)C(=O)NC(=O)NC1=O [Na amobarbital, sodium (Na) amobarbital, reference compound]
Average Sleep Time [8]: 0 min | Protection Against Seizure [2]: 0 Percent protected

O=C([O-])c1ccc([N+](=O)[O-])cc1O.O=C([O-])c1ccc([N+](=O)[O-])cc1O.[Cu+2] [Cu(II)(4-nitrosalicylate)2]
Doses causing death in some of the test groups [9]: higher than 100 mg/kg | Anticonvulsant activity (in words) ([1]; running text): effective in preventing seizures | Anticonvulsant activity, Maximal Electroshock (Phase I) ([2]; Table II, IP): I

Cc1ncc(CO)c(C=NCC(=O)[O-])c1[O-].Cc1ncc(CO)c(C=NCC(=O)[O-])c1[O-].O.O.O.[Cu+2].[Cu+2] [Cu(II)Pyridoxylideneglycinate(H2 O)1.5]
Lowest active dose, Metrazol (Phase I) ([6]; IP, challenge time 30 min): 100 mg/kg of body weight | Lowest active dose, Metrazol (Phase I) ([6]; IP, challenge time 4 hrs): I | Anticonvulsant activity (in words) ([1]; running text): protected against both types of seizure | Lowest active dose, MES (Phase I) ([2]; IP, challenge time 30 min): 300 mg/kg of body weight | Lowest active dose, MES (Phase I) ([2]; IP, challenge time 4 hrs): I

CN1C(=O)CN=C(c2ccccc2)c2cc(Cl)ccc21.CN1C(=O)CN=C(c2ccccc2)c2cc(Cl)ccc21.[Cl-].[Cl-].[Cu+2] [Cu(II)(Diazepam)2 (Cl)2]
Lowest effective dose, Metrazol (Phase I) ([6]; IP, challenge time 30 min): 30 milligrams per kilogram of bod | Lowest effective dose, Metrazol (Phase I) ([6]; IP, challenge time 4 hrs): 30 milligrams per kilogram of bod | Onset and duration of anticonvulsant action (in words) [1]: rapid onset of action and prolonged duration following intraperitoneal administration | Lowest effective dose, MES (Phase I) ([2]; Table X, IP, challenge time 30 min): 30 milligrams per kilogram of bod | Lowest effective dose, MES (Phase I) ([2]; Table X, IP, challenge time 4 hrs): 30 milligrams per kilogram of bod

O=C1NC(=O)C(c2ccccc2)(c2ccccc2)N1 [Dilantin, Phenytoin, reference compound]
Known effect of parent drug on seizures [10]: known to only inhibit Maximal Electroshock-induced seizures but it potentiates Metrazol-induced seizures | Time of peak effect ([1]; Phase II): 1 h | Time of peak activity (Phase II) ([1]; Table X, IP, challenge time): 1 h | ED50 ([2]; Mus musculus, Table X, IP, at time of peak activity, read-out: ED50 for inhibition of seizures, MES (Phase II)): 7 mg/kg
